Among the data in article PMC11628281, “A sulfonimide derivative of bezafibrate as a dual inhibitor of cyclooxygenase-2 and PPARα” (Frontiers in Pharmacology, 2024) are IC50 values, retold here.

The target in this experiment is T1, cyclooxygenase (COX)-2 (Homo sapiens, UniProt P35354).
T1 construct: gene PTGS2
T1 sequence (P35354 18-604): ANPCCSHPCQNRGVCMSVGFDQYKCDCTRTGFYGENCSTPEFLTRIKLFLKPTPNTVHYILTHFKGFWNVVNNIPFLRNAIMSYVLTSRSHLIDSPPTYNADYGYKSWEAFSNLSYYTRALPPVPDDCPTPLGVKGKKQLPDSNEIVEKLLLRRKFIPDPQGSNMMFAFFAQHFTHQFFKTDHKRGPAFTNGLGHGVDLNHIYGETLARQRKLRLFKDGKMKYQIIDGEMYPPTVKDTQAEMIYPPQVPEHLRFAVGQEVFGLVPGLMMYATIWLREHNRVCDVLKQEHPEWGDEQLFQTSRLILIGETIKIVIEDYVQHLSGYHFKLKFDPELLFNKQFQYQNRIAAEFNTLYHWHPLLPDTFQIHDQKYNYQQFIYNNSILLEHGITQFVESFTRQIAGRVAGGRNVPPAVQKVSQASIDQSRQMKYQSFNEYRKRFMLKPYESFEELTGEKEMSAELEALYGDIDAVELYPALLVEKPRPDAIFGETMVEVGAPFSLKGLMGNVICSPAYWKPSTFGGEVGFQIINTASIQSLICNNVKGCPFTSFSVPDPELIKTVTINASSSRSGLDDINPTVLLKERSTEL
The experiment is described as follows: LPS-stimulated human whole blood PGE2 (RIA); also HCA7 cells (COX-2 only), IC50 […], with washout.

The molecule `CC(C)(Oc1ccc(CCNC(=O)c2ccc(Cl)cc2)cc1)C(=O)NS(=O)(=O)c1ccccc1` [compound 6, AA520] returned an IC50 of 100 nM.

In general, IC50 refers to the midpoint of a concentration-inhibition curve. A high value points to a need for much substance.
